Here are results for one compound from patent publication US9758559B2, “Short peptides derived from VDAC1, compositions and methods of use thereof” (B.G. NEGEV TECHNOLOGIES AND APPLICATIONS LTD., AT …, priority 2013, dated 2017).

Structures are written as SMILES. Where a SMILES comes first, the peptide text is derived from it. [ ]: non-standard residue; d: D form.

Assay [1] relates to MEC-1 cells. The class given is cell-based. The conditions noted are these: 90 min incubation, serum-free medium, PI staining, FACS, read-out: IC50, induction of cell death, MEC-1. The protocol: MEC-1, MO1043 and T-Rex-293 cells were grown in DMEM supplemented with 10% FCS, 2 mM L-glutamine, 1000 U/ml penicillin and 1 mg/ml streptomycin, U-87, C6 and PC3 were maintained in RPMI 1640 supplemented with 10-20% FCS, 2 mM L-glutamine, 1000 U/ml penicillin and 1 mg/ml streptomycin. All cells were maintained in a humidified atmosphere with 5% CO2 at 37° C.
PBMCs (4×10^5 or 8×10^5 cells/sample) were incubated in 200 μl serum-free medium with the examined peptide for 90 min at room temperature and centrifuged (500×g, 5 min) Cell death was analyzed by PI staining and flow cytometer (Beckton-Dickinson) and BD Cell Quest Pro software. Apoptotic cell death was also analyzed by PI and annexin V-FITC staining (Zaid H et al. 2005. 12:751-760), and by acridine orange and ethidium bromide staining and confocal microscopy (Olympus 1×81).
To optimize the VDAC1 N-terminal derived peptides with respect to stability, length and specific targeting to cancer cells, several versions of these peptides were designed and tested for their efficacy in inducing the death of CLL-derived lymphocytes and MEC-1 cells (Table 3). Cells were incubated for 90 min with increasing concentrations of the indicated peptide and death was analyzed by PI stating and FACS as described hereinabove. As is clearly shown in FIG. 1 (and Table 3), deleting 6 residues from the C-terminus of the peptide, including the GXXXG motif, yielded a non-active peptide (peptide Δ(21-26) N-Ter-Antp, SEQ ID NO:22).

In assay [2] the test system is U-87 cells. Put plainly: TEM visualization of apoptotic cell death. The class given is cell-based, human. The conditions noted are these: 2.8 μM peptide. The protocol:
Representative images of transmission electron microscopy (TEM) of untreated cells (FIG. 8A) or cells treated with 2.8 μM of D-Δ1-14N-Ter-Antp (FIG. 8B) are shown.

For the compound `CC[C@@H](C)[C@@H](NC(=O)[C@@H](CCCCN)NC(=O)[C@H](NC(=O)[C@@H](CCC(N)=O)NC(=O)[C@@H](CCCNC(=N)N)NC(=O)[C@@H](CC(C)C)NC(=O)CNC(=O)[C@@H](Cc1ccccc1)NC(=O)CNC(=O)[C@@H](Cc1ccc(O)cc1)NC(=O)CNC(=O)[C@@H](CCCCN)NC(=O)[C@H](NC(=O)[C@@H](Cc1ccccc1)NC(=O)[C@H](NC(=O)[C@@H](CC(=O)O)NC(=O)[C@H](N)CCCNC(=N)N)C(C)C)[C@H](C)O)[C@H](C)CC)C(=O)N[C@H](Cc1c[nH]c2ccccc12)C(=O)N[C@H](Cc1ccccc1)C(=O)N[C@H](CCC(N)=O)C(=O)N[C@H](CC(N)=O)C(=O)N[C@H](CCCNC(=N)N)C(=O)N[C@H](CCCNC(=N)N)C(=O)N[C@H](CCSC)C(=O)N[C@H](CCCCN)C(=O)N[C@H](Cc1c[nH]c2ccccc12)C(=O)N[C@H](CCCCN)C(=O)N[C@H](CCCCN)C(=O)O` [D-Δ(1-14) N-Ter-Antp, ALL D-RDVFTKGYGFGL RQIKIWFQNRRMKWKK] (H-[dR][dD][dV][dF][dT][dK]G[dY]G[dF]G[dL][dR][dQ][dI][dK][dI][dW][dF][dQ][dN][dR][dR][dM][dK][dW][dK][dK]-OH), the IC50 (as a rule, the concentration at which inhibition is half-maximal) in assay [1] was determined as 2.1 ± 0.3 µM. The “apoptotic morphology by TEM” value in assay [2] is on record as “typical morphologic changes associated with apoptosis”.
